From patent US6413974B1, “6,9,-disubstituted 2-[trans-(4-aminocyclohexyl) amino] purines” (Aventis Pharmaceuticals Inc., priority 1998, dated 2002)
“And” between values parts separate entries of the source, which are not always exact repeats. Equal entries are not always repeated. Structures can show the parent of a compound that is named as a salt. Where two headings read alike, the source gives them in different places.

Key:
MDA-MB-435 = assay: In vitro tumor cell proliferation, MDA-MB-435; assay type: cell-based, human; conditions: read-out: In vitro Tumor Cell Proliferation (IC50, μM) Breast MDA-MB-435
Method: (§1) The proliferation of tumor cells was measured using a sulforhodamine B assay as described in Skehan, P., et al., J. Natl. Cancer Inst. […] Tumor cells were harvested with trypsin-EDTA, cells that excluded trypan blue were counted, added to 96-well plates and incubated overnight at 37° C. Drug was added to the wells following dilution in culture medium. Three days later, the medium was removed and replenished with medium containing fresh drug and incubated an additional 4 days. The cells were then fixed with 0.1 ml 10% trichloroacetic acid for 60 min at 4° C. The plates were rinsed five times with tap water, air-dried and stained for 30 min with 0.4% sulforhodamine B in 1% acetic acid and air-dried.
(§2) Alternatively, the CyQUANT cell proliferation assay was used to quantify tumor cell proliferation. Tumor cells were harvested with trypsin-EDTA, cells that excluded trypan blue were counted, added to 96-well plates and incubated overnight at 37° C. Drug was added to the wells following dilution in culture medium. Three days later the medium was removed and the plates frozen at −80° C. for at least 30 minutes.

PC-3 = assay: In vitro tumor cell proliferation, PC-3; assay type: cell-based, human; conditions: read-out: In vitro Tumor Cell Proliferation (IC50, μM) Prostate PC-3
Method: as §1, §2

cdk4/cyclin D1 = target: T1, cdk4/cyclin D1 (Homo sapiens, UniProt P11802); assay: Cyclin-dependent kinase 4 Assay; assay type: biochemical; conditions: cdk4/cyclin D1, GST-Rb substrate, 10 μM ATP, 30 min at 37° C.; read-out: CDK4 Inhibition IC50
T1 construct: made in house; host or cells: Sf9 insect cells (Bac-to-Bac baculovirus, pFastBac)
Method: The IC50 values for cdk-4 inhibition were by the following method:
(§3) The transformed bacteria were grown overnight to saturation, then diluted in YT broth and incubated at 37° C. for 2 h. The protein was induced by incubation with 0.1 mM isopropylthioglycoside for 3 h. Following sedimentation by centrifugation, the cells were lysed by sonication in STE buffer ([…] NaCl, 10 mM Tris, pH 8.0, 1 mM EDTA) containing 10% sarkosyl. Particulate matter was removed by centrifugation and the lysate was incubated with glutathione-Sepharose at 4° C. The beads were washed with kinase buffer and then quantitation of Coomassie blue-stained proteins separated by SDS-PAGE was performed using a protein standard of known concentration.
The cDNA for human cyclin D1 was cloned by RT PCR using […] from MCF-7 cells. […] Bacmid DNA was used to transfect Sf9 insect cells to produce recombinant virus. Following plaque purification of the virus, the viral preparations were amplified until high titer stocks were acheived.
Lysates were prepared by lysis of Sf9 cells coinfected with cdk4 and cyclin D1 in 50 mM HEPES, pH 7.5, 10 mM MgCl2, 1 mM DTT, 0.1 mM phenylmethylsulfonyl fluoride, 5 μg/ml aprotinin, and 5 μg/ml leupeptin using a PARR bomb under 500 p.s.i nitrogen pressure for 5 min at 4° C. Insoluble material was sedimented at 10,000×g for 20 min at 4° C. Glycerol was added to the supernatant to 10% and stored at −80° C. in aliquots.
(§4) Pre-wet Millipore Multiscreen 96-well filter plates (0.65 μm Durapore filters) with 200 μl kinase buffer (50 mM HEPES, pH 7.5, 10 mM MgCl2, 1 mM EGTA). GST-Rb (0.5 μg) bound to glutathione-Sepharose beads is added in 50 μl per well and the solution removed by application of vacuum. […] Add 0.1 μg cdk4/cyclin D1 (insect cell lysate) to initiate assay. Incubate 30 min at 37° C. Terminate reaction by filtration on Millipore Vacuum Manifold. Wash four times with TNEN (20 mM Tris, pH 8.0, 100 mM Na Cl, 1 mM EDTA, 0.5% nonidet P-40). After drying the plates at room temperature, the filter plates were placed in adapter plates (Packard) and 40 μl of Microscint-O® (Packard) was added to each well. Top Seal A film was used to cover the plates before counting in a Top Count Scintillation Counter.

cdk2/cyclin E = target: T2, cdk2/cyclin E (Homo sapiens, UniProt P24941); assay: Cyclin-Dependent Kinase 2 Assay (cdk-2 inhibition); assay type: biochemical; conditions: GST-Rb substrate, 30 min at 30° C.
T2 construct: made in house; host or cells: insect cells (baculovirus co-infection)
Method: as §3, §4
GST-Rb as described above for cdk4/cyclin D1
Assay conditions for cdk2/cyclin E were identical to those for cdk4/cyclin D1 including the substrate. The concentration of recombinant cdk2/cyclin E in the assay was 0.1 μg per 100 μl assay. Incubation was for 30 min at 30° C.

HT-29 = assay: In vitro tumor cell proliferation, HT-29; assay type: cell-based, human; conditions: read-out: In vitro Tumor Cell Proliferation (IC50, μM) Colon HT-29 (converted)
Method: as §1, §2
HT-29 is a human colon adenocarcinoma, moderately well-differentiated grade II (HTB 38);

DMS-114 = assay: In vitro tumor cell proliferation, DMS-114; assay type: cell-based, human; conditions: read-out: In vitro Tumor Cell Proliferation (IC50, μM) Lung DMS-114
Method: as §1, §2

DU 145 = assay: In vitro tumor cell proliferation, DU 145; assay type: cell-based, human; conditions: read-out: In vitro Tumor Cell Proliferation (IC50, μM) Prostate DUI45
Method: as §1, §2

MDA-MB-231 = assay: In vitro tumor cell proliferation, MDA-MB-231; assay type: cell-based, human; conditions: read-out: In vitro Tumor Cell Proliferation (IC50, μM) Breast MDA-MB-231
Method: as §1, §2

Colo-205 = assay: In vitro tumor cell proliferation, Colo-205; assay type: cell-based, human; conditions: read-out: In vitro Tumor Cell Proliferation (IC50, μM) Colon Colo-205
Method: as §1, §2

A549 = assay: In vitro tumor cell proliferation, A549; assay type: cell-based, human; conditions: read-out: In vitro Tumor Cell Proliferation (IC50, μM) Lung A549
Method: as §1, §2

[1] = Homo sapiens, MDA-MB-435, values marked * (mark not explained)
[2] = values marked * (mark not explained), dihydrochloride
[3] = Homo sapiens, PC-3, values marked * (mark not explained)
[4] = Homo sapiens, HT-29, values marked * (mark not explained)
[5] = Homo sapiens, DMS-114, values marked * (mark not explained)
[6] = Homo sapiens, DU-145, values marked * (mark not explained)
[7] = Homo sapiens, MDA-MB-231, values marked * (mark not explained)
[8] = Homo sapiens, COLO 205, values marked * (mark not explained)
[9] = Homo sapiens, A549, values marked * (mark not explained)

T1 sequence (P11802 whole entry): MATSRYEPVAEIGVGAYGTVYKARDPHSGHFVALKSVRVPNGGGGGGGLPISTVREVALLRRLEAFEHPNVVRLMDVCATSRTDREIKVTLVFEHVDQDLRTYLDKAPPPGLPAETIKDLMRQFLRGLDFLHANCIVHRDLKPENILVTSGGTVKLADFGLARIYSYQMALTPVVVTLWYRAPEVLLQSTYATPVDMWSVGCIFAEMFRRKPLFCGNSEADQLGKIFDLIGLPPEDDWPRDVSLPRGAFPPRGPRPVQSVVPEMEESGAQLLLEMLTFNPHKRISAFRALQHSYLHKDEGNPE
T1 sequence (P24385 whole entry partner): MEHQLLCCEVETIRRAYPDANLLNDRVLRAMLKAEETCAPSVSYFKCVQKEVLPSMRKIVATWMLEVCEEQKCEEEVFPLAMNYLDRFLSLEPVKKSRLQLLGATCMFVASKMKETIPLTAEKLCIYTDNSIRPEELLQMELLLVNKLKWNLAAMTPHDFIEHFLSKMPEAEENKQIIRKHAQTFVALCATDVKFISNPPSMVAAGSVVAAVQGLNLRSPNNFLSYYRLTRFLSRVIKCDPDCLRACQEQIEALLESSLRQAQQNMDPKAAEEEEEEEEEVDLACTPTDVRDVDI

SMILES | IC50 (MDA-MB-435; [1]) | IC50 (MDA-MB-435; [2]) | IC50 (PC-3; [3]) | IC50 (PC-3; [2]) | IC50 (cdk4/cyclin D1) | IC50 (cdk2/cyclin E) | IC50 (HT-29; [4]) | IC50 (HT-29; [2]) | IC50 (DMS-114; [5]) | IC50 (DMS-114; [2]) | IC50 (DU 145; [6]) | IC50 (DU 145; [2]) | IC50 (MDA-MB-231; [7]) | IC50 (MDA-MB-231; [2]) | IC50 (Colo-205; [8]) | IC50 (Colo-205; [2]) | IC50 (A549; [9]) | IC50 (A549; [2])
CCCCCNc1nc(N[C@H]2CC[C@H](N)CC2)nc2c1ncn2C1CCCC1 [Example 26, 2-[Trans-(4-aminocyclohexyl)amino]-6-(pentylamino)-9-cyclopentylpurine dihydrochloride] | 2.2 µM | 2.3 µM | 1 µM | 1.4 µM | 0.51 µM and 0.46 µM | 0.08 µM and 0.036 µM | 1.4 µM | 1.6 µM | 1.8 µM | 1 µM | 0.73 µM | 0.95 µM | 1.2 µM | 1.4 µM | 1.3 µM | 1.5 µM |  | 
N[C@H]1CC[C@H](Nc2nc(NCCCO)c3ncn(C4CCCC4)c3n2)CC1 [Example 53, 2-[Trans-(4-aminocyclohexyl)amino]-6-[(3-hydroxypropyl)amino]-9-cyclopentylpurine dihydrochloride] | 12 µM | 11 µM | 3.4 µM | 5.9 µM | 0.29 µM and 0.094 µM and 0.075 µM | 0.013 µM and 0.026 µM |  |  | 16 µM | 17 µM | 7.5 µM | 11 µM | 6.7 µM | 8.5 µM | 5.1 µM | 5 µM | 12 µM | 9.3 µM
N[C@H]1CC[C@H](Nc2nc(NCCc3cccnc3)c3ncn(C4CCCC4)c3n2)CC1 [Example 7, 2-[Trans-(4-aminocyclohexyl)amino]-6-[(3-pyridyl)-2-ethylamino]-9-cyclopentylpurine dihydrochloride] | 11 µM |  | 8 µM | 4.6 µM | 0.3 µM | 0.06 µM |  |  | 16 µM | 24 µM | 10 µM | 9 µM | 7.9 µM | 7 µM | 6.3 µM | 7.8 µM | 15 µM | 
NCCCCCCCCNc1nc(N[C@H]2CC[C@H](N)CC2)nc2c1ncn2C1CCCC1 [Example 56, 2-[Trans-(4-amninocyclohexyl)amino]-6-[(8-aminooctyl)amino]-9-cyclopentylpurine dihydrochloride] | 3.8 µM | 3.1 µM | 2.7 µM | 4.4 µM | 0.86 µM | 0.115 µM | 2.5 µM | 3.4 µM |  |  | 4.9 µM | 3.6 µM | 2.2 µM | 3.5 µM | 3.5 µM | 6.3 µM | 2.8 µM | 2.5 µM
